Data set [1] is classed as in vivo, mice.
Experimental: Since the protective effect of DPH for the cochlea may be mediated by blocking an ion transporter being relevant for the physiological function of the target cells, an additional experiment was done to verify whether a treatment with DPH alone alters the hearing capability of the mice. For this, five animals measured for their basal auditory sensitivity with the BAER test were treated 24 h later with a single dose of DPH (57 mg/kg), and were re-examined one hour later again by the BAER test.
The subject of data set [2] is Pt-GG adducts in DNA. The data set is described as follows: In vivo screening for cis-platin uptake inhibitors and DPH co-administration, ICA of Pt-GG adducts. Also noted: species or system mice. The protocol: (§1) The sacrificed animals were immediately dissected. Kidneys and lungs were submerged in embedding medium (Tissue-Tek O.C.T. Compound) and frozen in liquid nitrogen. Cochleae were dissected and fixed by intralabyrinthine perfusion with Carnoy's solution (3 hours; for DNA adduct staining) or with formaldehyde (4 % in PBS; 1 hour; for OCT protein staining). Cochleae were decalcified in EDTA solution (10 % w/v in PBS) for 3 days and then placed in sucrose solutions (5 % in PBS for 12 hours and 15 % in PBS for 5 hours). After that samples were imbedded in Tissue-Tek medium, frozen and cryosections of 10 µm cut.
(§2) Frozen tissue sections of the inner ear or kidneys on ImmunoSelect slides were fixed in methanol at -20°C for at least 2 hours or overnight and then rehydrated for 10 minutes in PBS, at room temperature. To provide better antibody penetration in the tissue structures the samples underwent alkaline permeabilisation of cytoplasmic and nuclear membranes for 5 minutes at 0°C, followed by washing in PBS at room temperature for 5 minutes. The proteolytic cleavage of cytoplasmic and nuclear proteins was performed in two steps. At first, a pre-warmed pepsin solution (60 µg /ml for cell culture or 100 µg/ml for tissue sections in PBS/HCl) was applied onto the tissue sections and incubated for 10 minutes at 37°C in a humidified chamber. The incubation with pepsin was followed by washing in PBS for 10 minutes at room temperature. In a second step tissue sections were incubated with pre-warmed proteinase K solution (40 µg/ml for cell cultures or 50-100 µg /ml for tissue sections in proteinase K buffer) for 10 minutes at 37°C in a humidified chamber. Subsequently the sections were washed in 0.2 % glycine in PBS for 10 minutes at room temperature. Non-specific binding of the antibodies was inhibited by incubation with a blocking solution of 1 % casein in PBS for 30 minutes at room temperature. The samples were then incubated with a monoclonal antibody (R-C18, Liedert et al., 2006) specific for Pt-GG adducts in DNA (0.1 µg/ml in 0.1 % BSA/PBS) over night at 4°C in the humidified chamber. Subsequently, the slides were washed in 0.05 % Tween 20 in PBS for 5 minutes at room temperature and then in PBS for 5 minutes. The incubation with secondary Cy3-labeled rabbit anti-(rat Ig) antibodies, was performed (0.2 µg/ml in 0.1 % BSA/PBS) for 60 minutes at 37°C in the humidified chamber, followed by washing in 0.05 % Tween 20 in PBS for 5 minutes at room temperature and then in PBS for 5 minutes. The nuclear DNA was counterstained with DAPI (1 µg/ml in PBS) for 30 minutes at room temperature. The slides were then washed in PBS. Finally, the samples were embedded with a densification compound "[…]". The quantification of immuno- and DNA-fluorescence was performed by means of a microscope-coupled digital image analysis system ACAS 6.0 Cytometry Analysis System. Adduct levels in the nuclear DNA of individual cells were calculated by normalizing antibody-derived fluorescence signals to the corresponding DNA content of the same nucleus, and were expressed as arbitrary fluorescence units (AFUs). Data were assigned to specific cell types as determined by histochemistry.
The mice were separated into two groups for pretreatment with low or high doses of the test compounds. […] The low dose group received half the dose of the high dose group (50, 50, 30 or 10 mg/kg, respectively). […] Cochleae and kidneys were dissected for immunostaining and ICA analyses of Pt-GG adduct levels in specific cell types (Figure 8). In tissue sections from mice pretreated with quinine or butylscopolamine no inhibition of DNA platination was observed, independent of the dosing, in either of the three target cell types (renal tubulus epithelium cells (Figure 8 A), cochlear marginal cells (Figure 8B) and outer hair cells (Figure 8 C)). […]

Data set [3] relates to Pt-GG adducts in DNA. The data set can be described thus: Immunocytological assay (ICA) of Pt-GG adducts in kidney and cochlea cells after cis-platin treatment. Format: in vivo, mice. The protocol: as §1, §2
24 hours later, the inner ears and kidneys were dissected, kidneys were frozen immediately and cochleae were fixed and decalcified. Cryosections (10 µm) prepared from the tissues were placed onto specific adhesion slides. Slides were then immunostained for the visualization of platinum-guanine-guanine (Pt-GG) intrastrand adducts in the nuclei of individual cells by using the adduct-specific monoclonal antibody R-C18 in an immunocytological assay (ICA) (Liedert et al., 2006). The tissue sections were then stained with a secondary Cy3-labeled goat-anti-rat antibody (Cy3), counterstained with DAPI for nuclear DNA, and analyzed in the fluorescence microscope (Figure 1). Serial sections from the same tissues were stained for morphological orientation with hematoxyline and eosin (H&E). […]

For data set [4], the system named is Pt-GG adducts in DNA. Described as above. Format: in vivo, mice. The note with it: cis-platin 12.5 mg/kg single dose; measured 2, 16, 48, 72 h.
Data set [5] has as its system Pt-GG adducts in DNA. The data set is described as follows: ICA of Pt-GG adducts in cochlear cells of XPA-/- versus wild type mice. The class given is in vivo. The protocol: Frozen tissue sections of the inner ear or kidneys on ImmunoSelect slides were fixed in methanol at -20°C for at least 2 hours or overnight and then rehydrated for 10 minutes in PBS, at room temperature. To provide better antibody penetration in the tissue structures the samples underwent alkaline permeabilisation of cytoplasmic and nuclear membranes for 5 minutes at 0°C, followed by washing in PBS at room temperature for 5 minutes. The proteolytic cleavage of cytoplasmic and nuclear proteins was performed in two steps. At first, a pre-warmed pepsin solution (60 µg /ml for cell culture or 100 µg/ml for tissue sections in PBS/HCl) was applied onto the tissue sections and incubated for 10 minutes at 37°C in a humidified chamber. The incubation with pepsin was followed by washing in PBS for 10 minutes at room temperature. […] The quantification of immuno- and DNA-fluorescence was performed by means of a microscope-coupled digital image analysis system ACAS 6.0 Cytometry Analysis System. Adduct levels in the nuclear DNA of individual cells were calculated by normalizing antibody-derived fluorescence signals to the corresponding DNA content of the same nucleus, and were expressed as arbitrary fluorescence units (AFUs). Data were assigned to specific cell types as determined by histochemistry. […]

[6] abbreviates: cis-platin plus DPH, repetitive treatment.
The mark [7] stands for this setting: DPH 0 to 57 mg/kg i.p. 30 minutes prior to cis-platin 10 mg/kg (Figure 9).
The mark [8] stands for this setting: DPH 57 mg/kg 30 minutes before cis-platin 12.5 mg/kg, 2, 16, 48, 72 hours.
Where [9] appears, read: high dose of 60 mg/kg i.p. 1 h before cis-platin 10 mg/kg, 24 h.
Setting [10] is: cis-platin 10 mg/kg i.p., cochlea, 24 h (Figure 3 B).
Where [11] appears, read: cis-platin 10 mg/kg i.p., kidney.
Where [12] appears, read: cis-platin 10 mg/kg i.p., kidney, 24 h (Figure 3 A).

“Also recorded” adds a separate entry of the source.

As for `CN(C)CCOC(c1ccccc1)c1ccccc1` [DPH, diphenhydramine], in data set [1] (DPH alone, up to eight applications), the “side effects of prolonged treatment” value is “no obvious side effects”. Also, in data set [1] (setting [6]), the “general health status versus cis-platin alone group” value is recorded as “better” and the “weight loss versus cis-platin alone group” value is reported as “less severe”. Further, in the data set on Pt-GG adducts in DNA [2] (setting [7]), the “adduct accumulation in proximal tubule cells and marginal cells” value was “dose-dependent inhibition”; the “adduct levels in distal tubule cells and basal and intermediate cells of the stria vascularis” value is listed as “No significant alterations”. In the data set on Pt-GG adducts in DNA [2] (setting [8]), the “DNA platination in marginal and outer hair cells versus cis-platin alone, all time points” value was “drastically decreased”; the “capability to repair the DNA damage” value is given as “no obvious differences”. Further, in the data set on Pt-GG adducts in DNA [2] (DPH along with cis-platin (description)), the “inhibition of the formation of Pt-adducts in outer hair cells and marginal cells” value is “about 70%”. Also, in the data set on Pt-GG adducts in DNA [2] (cis-platin 15 mg/kg with DPH 50 mg/kg, 24 h (Figure 9 C)), the “formation of Pt-adducts in dorsal root ganglion (DRG) neurons” value is on record as “inhibited; also recorded: significantly reduced”. In the data set with Pt-GG adducts in DNA [2] (setting [9]), the “shielding from DNA damage, cochlear marginal cells” value is given as 70%; the “shielding from DNA damage, outer hair cells” value is “about 50%”; the “shielding from DNA damage, proximal tubule cells” value is reported as 75%. For the same compound, the “adduct levels in other cell types of the inner ear” value in the data set with Pt-GG adducts in DNA [2] (repetitive cis-platin 5 mg/kg every second day plus DPH 57 mg/kg) is “remained unchanged”. Besides, in the data set on Pt-GG adducts in DNA [2] (repetitive cis-platin 5 mg/kg every second day plus DPH 57 mg/kg (Figure 12)), the “adducts in target cells of kidney and inner ear versus cis-platin alone group” value was “by far less adducts”.
For `N.N.[Cl][Pt][Cl]` [cis-platin, cis-diaminedichloro-platinum(II)], in the data set on Pt-GG adducts in DNA [3] (cis-platin 10 mg/kg i.p.), the “levels of Pt-GG adducts, OHC vs. adjacent cells in the organ of Corti” value was 11 fold and the “levels of Pt-GG adducts, marginal cells compared to other cell types in the stria vascularis” value was found to be 5 fold. For the same compound, in the data set on Pt-GG adducts in DNA [3] (setting [10]), the “levels of Pt-GG adducts, adjacent cells in the organ of Corti” value was determined as 1.19 AFUs and the “levels of Pt-GG adducts, other cell types in the stria vascularis” value worked out at 2.08 AFUs. For the same compound, the “levels of Pt-GG adducts, OHC (outer hair cells)” value in the data set with Pt-GG adducts in DNA [3] (cis-platin 10 mg/kg i.p., cochlea, organ of Corti, 24 h (Figure 3 B)) turned out to be 13.26 AFUs. Further, the “levels of Pt-GG adducts, marginal cells” value in the data set on Pt-GG adducts in DNA [3] (cis-platin 10 mg/kg i.p., cochlea, stria vascularis, 24 h (Figure 3 B)) is on record as 9,85 AFUs. Also, in the data set on Pt-GG adducts in DNA [3] (setting [11]), the “platination level, distal tubular cells versus glomerulus cells” value was “twice as high” and the “platination level, proximal tubular cells versus distal tubular cells” value is recorded as 7 fold. Besides, in the data set on Pt-GG adducts in DNA [3] (setting [12]), the “platination level (Pt-GG adducts), distal tubular cells” value came out at 2.61 AFUs; the “platination level (Pt-GG adducts), glomerulus cells” value is listed as 0.97 AFUs; the “platination level (Pt-GG adducts), proximal tubular cells” value turned out to be 18.97 AFUs. In the data set on Pt-GG adducts in DNA [3] (cis-platin 10 mg/kg single dose, 24 h, turns of the cochlea (Figure 4)), the “adduct levels of non-marginal cells of the stria vascularis, lower than marginal cells” value is 10 fold. Moreover, in the data set on Pt-GG adducts in DNA [4], the “time at which Pt-GG levels peaked, OHCs” value worked out at 16 h and the “time at which Pt-GG levels peaked, marginal cells” value worked out at 48 h. The “adduct levels in inner ear cis-platin target cells, XPA -/- mice versus wild type littermates” value with Pt-GG adducts in DNA [5] (cis-platin cumulated dose 3.5 mg/kg (Figure 7 B legend)) is “more than 3 times”. For the same compound, the “levels of DNA damage in marginal cells, XPA-/- mice compared to wild type littermates” value in the data set with Pt-GG adducts in DNA [5] (cis-platin cumulative dose 3.5 mg/kg (Figure 7 B)) was “about 2.7 fold”.
